Several values for one entry are separate records, joined by “and”; a condition that tells them apart may be missing. Equal entries are not always repeated. Some results are limits rather than exact numbers.

Consider seven compounds from patent publication US4999436A, “Aryl-substituted thiophene 3-ols, derivatives and analogs useful as lipoxgenase inhibitors” (Merck & Co., Inc., priority 1989, dated 1991).

Assay [1] has as its target T1, cyclooxygenase (Ovis aries, UniProt P05979).
T1 construct: Ram seminal vesicular glands were trimmed of fat; from tissue; host or cells: ram seminal vesicular glands, microsomal pellet (105K xg)
T1 sequence (P05979 25-600): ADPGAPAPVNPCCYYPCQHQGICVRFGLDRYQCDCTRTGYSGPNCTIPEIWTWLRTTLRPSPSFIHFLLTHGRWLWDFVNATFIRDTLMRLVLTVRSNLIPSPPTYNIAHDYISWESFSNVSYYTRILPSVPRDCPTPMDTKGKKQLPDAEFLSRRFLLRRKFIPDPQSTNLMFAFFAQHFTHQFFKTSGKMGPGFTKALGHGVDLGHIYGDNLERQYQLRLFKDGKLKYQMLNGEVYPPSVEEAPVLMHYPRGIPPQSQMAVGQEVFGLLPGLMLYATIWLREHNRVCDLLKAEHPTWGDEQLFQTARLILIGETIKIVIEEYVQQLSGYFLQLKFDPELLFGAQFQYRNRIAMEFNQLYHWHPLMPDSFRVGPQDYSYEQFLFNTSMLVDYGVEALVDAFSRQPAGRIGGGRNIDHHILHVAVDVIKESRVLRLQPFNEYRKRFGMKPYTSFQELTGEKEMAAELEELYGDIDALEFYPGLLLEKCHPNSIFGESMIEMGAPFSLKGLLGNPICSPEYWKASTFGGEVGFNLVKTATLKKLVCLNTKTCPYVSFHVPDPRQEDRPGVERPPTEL
The assay is described as follows: RSVM-CO: Ram Seminal Vesicle Microsomal Cyclooxygenase assay. The assay is classed as biochemical. The following applies: for inhibition at 0.1 µg/mL: 0.1 μg/ml; for inhibition at 1 µg/mL: 1 μg/ml; for inhibition at 0.01 µg/mL: 0.01 μg/ml. The source says:
(§1) Two screening methods were employed for the purposes of evaluating the biological activities of the compounds of the present invention. The PMN5LO assay is a direct measure of the capacity to inhibit 5-lipoxygenase. The second protocol, RSVM-CO, is a method of determining inhibition of cyclooxygenase enzyme activity and as such it serves as a negative control.
B. Ram Seminal Vesicle Microsomal Cyclooxygenase (RSVM-CO) Assay Protocol
Ram seminal vesicular glands were trimmed of fat, 50 grams diced into 250 mls ice cold 0.1 M potassium phosphate (pH 7.6) buffer and homogenized using a Brinkman Polytron. The suspension was centrifuged 10 minutes at […] (4° C.) and the supernatant filtered through two cheesecloth layers. The filtrate was centrifuged 160 minutes at 105K xg, the supernatant thereof discarded, and the pellet surface rinsed with a small volume of buffer. The pellets were combined in a small volume, briefly homogenized with the Polytron and frozen in 0.5 ml aliquots at -80° C. The protein concentration was about 50 mg/ml.
The thawed enzyme was diluted 1:63 with 0.125 M Na EDTA (pH 8.0) containing 50 μg/ml BSA. A substrate-cofactor premix was prepared with 66 μM ^14 C-arachidonic acid (about 20K cpm/12.5 μl) in 500 μl 0.125 M Na EDTA (pH 8.0) plus 10 μl 50 mM hydroquinone and 10 μl 200 mM glutathione. To each sample well in the 96 well plate, agents dissolved in 0.5 μ DMSO were added, followed by 12.5 μl of the diluted enzyme. After a 4 minute preincubation at room temperature, 12.5 μl of the substrate-cofactor mix was added to start the reaction. The reaction was terminated after 20 minutes at room temperature by adding 25 μl of methanol containing 200 μg PGE2 and 400 μg AA per ml.
The entire reaction mixture was spotted onto a preadsorbent silica gel GF thin layer plate and, after air drying 45 minutes, developed 12 cm in ethyl acetate:glacial acetic acid (99:1).
The developed lanes were scanned for the distribution of radiolabel using a Bioscan Imaging Detector and the integrated peaks compared to standards and controls yielding % inhibition.

The target of assay [2] is T2, 5-lipoxygenase (Rattus norvegicus, UniProt P12527).
T2 construct: endogenous in cells; host or cells: casein-elicited peritoneal polymorphonuclear leukocytes of male Sprague-Dawley rats
T2 sequence (P12527 1-673): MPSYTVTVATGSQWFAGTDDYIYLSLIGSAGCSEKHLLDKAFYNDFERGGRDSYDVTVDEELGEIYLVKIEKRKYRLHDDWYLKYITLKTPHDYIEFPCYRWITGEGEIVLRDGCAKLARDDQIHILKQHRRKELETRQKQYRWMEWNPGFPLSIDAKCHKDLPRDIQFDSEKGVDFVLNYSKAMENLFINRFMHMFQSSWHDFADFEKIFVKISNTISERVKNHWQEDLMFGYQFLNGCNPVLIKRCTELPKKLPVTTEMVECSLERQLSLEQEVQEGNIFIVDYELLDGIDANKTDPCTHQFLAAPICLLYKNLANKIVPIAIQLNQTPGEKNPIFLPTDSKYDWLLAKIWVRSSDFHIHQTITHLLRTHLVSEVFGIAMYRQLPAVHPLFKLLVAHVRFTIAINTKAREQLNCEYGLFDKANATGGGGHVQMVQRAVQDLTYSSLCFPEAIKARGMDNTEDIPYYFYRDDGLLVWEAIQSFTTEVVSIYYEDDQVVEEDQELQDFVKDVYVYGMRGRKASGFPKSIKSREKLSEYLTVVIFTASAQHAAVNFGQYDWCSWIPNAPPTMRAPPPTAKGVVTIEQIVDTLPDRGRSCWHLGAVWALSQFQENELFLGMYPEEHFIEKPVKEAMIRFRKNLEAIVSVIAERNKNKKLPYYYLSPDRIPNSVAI
In words: PMN5LO assay: inhibition of LTB4 production in A23187-stimulated rat peritoneal PMN (RIA). The assay is classed as cell-based. The following applies: for IC50: estimated concentration required for 50% inhibition. Here is the method:
as §1
Elicition of Rat Peritoneal polymorphonuclear leukoytes (PMN)
Male Sprague-Dawley rats (about 350 grams) were injected intraperitoneally the day before use with 8 ml of 12% sodium caseinate. The next day the animals were killed by CO2 asphyxiation and the peritoneal cavity lavaged twice with 20 ml of Hanks balanced salts containing 15 mM HEPES (pH 7.4), 1.4 mM Ca^++ and 0.7 mM Mg^++ (Hepes-Hanks). The suspensions were filtered through plastic mesh and centrifuged at […] for 5 minutes. The cells were resuspended in 50 ml Hepes-Hanks and recentrifuged. The PMN pellets were combined and suspended at 1.25×10^7 cells/ml.
The cell suspension was then diluted 1:10, preincubated 5 minutes at 37° C. and distributed in 200 μl aliquots in the wells of 96 well microtiter plates. The wells had previously received samples of the compounds of the present invention, controls, etc., in 25 μl of 0.001% fatty acidfree BSA in Hepes-Hanks. The plates were incubated 2 minutes at 37° C. and then the cells were stimulated to produce LTB4 by the addition of 25 μl of 100 μM calcium ionophore, designated A23187. After 4 minutes at 37° C. the plates were frozen in dry ice.
Radioimmunoassay (RIA) of LTB4
The frozen plates were thawed to 4° C. and 25 μl aliquots removed to V well plates. Antibody to LTB4 (50 μl) was added and, after 15 minutes at room temperature, 50 μl of ^3 H-LTB4 was added and the plates were stored overnight at 4° C. to allow equilibration. The next day the "free" 3H-LTB4 was removed by adsorption to dextran coated charcoal [90 μl per well of a 4% charcoal suspension with 0.25% Dextran T-70 in 10 mM potassium phosphate (pH 7.3) containing lmM EDTA and 0.25 mM thimerasol] during a 10 minute ice temperature incubation. The charcoal was removed by a 10 minute centrifugation at 200 sg. Aliquots of the supernatant were counted in a Packard 460, analyzed in a Masscomp computer and the data drawn up as % inhibition of LTB4 production.

`Oc1cc(-c2ccccc2)sc1-c1ccccc1` [Compound 4, 3-Hydroxy-2,5-diphenylthiophene] registered an inhibition at 0.1 µg/mL in assay [1] of 24%. In assay [1] (0.4 μg/ml), this compound showed an inhibition at 0.4 µg/mL of 18%. Besides, the inhibition at 1 µg/mL was 6% in assay [1] and 99% in assay [2] (1 μg/ml). Further, the inhibition at 2 µg/mL in assay [1] (2 μg/ml) was 46%. Also, the inhibition at 10 µg/mL in assay [1] (10 μg/ml) came out at 92%. In addition, the PMN5LO % inhibition in assay [2] (0.012 μg/ml) is 11%; in assay [2] (0.11 μg/ml), 97% and 70%; in assay [2] (0.33 μg/ml), 85%; in assay [2] (1 μg/ml), 88%. The compound also yielded an inhibition at 0.012 µg/mL in assay [2] (0.012 μg/ml) of 17%. Further, in assay [2] (0.33 μg/ml), the inhibition at 0.33 µg/mL was 98%. In addition, in assay [2], the IC50 is 110 nM.

In assay [1], `CC(=O)Oc1c(-c2ccccc2)sc(-c2ccccc2)c1-c1ccccc1` [Compound 7] showed an inhibition at 0.01 µg/mL of 0%, an inhibition at 0.1 µg/mL of 0% and an inhibition at 1 µg/mL of 12%. For the same compound, in assay [1] (5 μg/ml), 5 µg/mL produced 76% inhibition. For the same compound, the PMN5LO % inhibition in assay [2] (1 μg/ml) was 10% and 0%. The IC50 in assay [2] was more than 3000 nM.

In assay [1], `COCC(=O)Oc1cc(-c2ccccc2)sc1-c1ccccc1` [Compound 10] returned an inhibition at 0.1 µg/mL of 60%. The compound further displayed an inhibition at 0.012 µg/mL in assay [2] (0.012 μg/ml) of 0%. In addition, the PMN5LO % inhibition in assay [2] (0.037 μg/ml) was 28% and 51%; in assay [2] (0.11 μg/ml), 73%; in assay [2] (1 μg/ml), 58%. In addition, the inhibition at 0.33 µg/mL in assay [2] (0.33 μg/ml) amounted to 100%. The IC50 is 200 nM in assay [2] and 110 nM in assay [2] (unit inferred).

In assay [1], `COCOc1cc(-c2ccccc2)sc1-c1ccccc1` [Compound 12, 2,5-Diphenyl-3-(methoxymethoxy)-thiophene] displayed an inhibition at 0.01 µg/mL of 28%, an inhibition at 0.1 µg/mL of 0% and an inhibition at 1 µg/mL of 100%. Also, in assay [2] (0.11 μg/ml), the PMN5LO % inhibition came to 40% and the inhibition at 0.11 µg/mL was 31%. In assay [2] (0.33 μg/ml), this compound had a PMN5LO % inhibition of 84% and an inhibition at 0.33 µg/mL of 74%. In assay [2], the IC50 is 580 nM and 350 nM.

In assay [1], `COc1ccc(-c2sc(-c3ccccc3)cc2OC(C)=O)cc1` [Compound 14, 3-Acetoxy-2-(4'-methoxyphenyl)-5-phenylthiophene] registered an inhibition at 0.1 µg/mL of 0%. The PMN5LO % inhibition in assay [2] (0.012 μg/ml) was 12%; in assay [2] (0.11 μg/ml), 91% and 46%; in assay [2] (0.33 μg/ml), 85%; in assay [2] (1 μg/ml), 80%. This compound also had an inhibition at 0.012 µg/mL in assay [2] (0.012 μg/ml) of 24%. In assay [2] (0.33 μg/ml), this compound yielded an inhibition at 0.33 µg/mL of 100%. This compound gave an inhibition at 1 µg/mL in assay [2] (1 μg/ml) of 100%. Moreover, the IC50 in assay [2] is 80 nM.

`CC(=O)Oc1cscc1-c1ccccc1` [Compound 15, 3-Acetoxy-4-phenylthiophene]: in assay [1], the inhibition at 0.1 µg/mL is 0% and the inhibition at 1 µg/mL is 0%. This compound gave an inhibition at 0.012 µg/mL in assay [2] (0.012 μg/ml) of 9%. For the same compound, the inhibition at 0.037 µg/mL in assay [2] (0.037 μg/ml) turned out to be 0%. For the same compound, at 0.11 µg/mL the inhibition in assay [2] (0.11 μg/ml) was 0%. Also, in assay [2] (0.33 μg/ml), the inhibition at 0.33 µg/mL was 0%. This compound also registered an inhibition at 1 µg/mL in assay [2] (1 μg/ml) of 10%.

In the case of `CC(=O)Oc1cc(-c2ccccc2)sc1-c1cccnc1` [Compound 16, 3-Acetoxy-2-(3'-pyridyl)-5-phenylthiophene], in assay [1], 0.1 µg/mL produced 0% inhibition and 1 µg/mL produced 0% inhibition. In assay [2] (0.33 μg/ml), this compound displayed a PMN5LO % inhibition of 84% and an inhibition at 0.33 µg/mL of 94%. In assay [2] (1 μg/ml), the PMN5LO % inhibition amounted to 88% and the inhibition at 1 µg/mL is 100%. In addition, in assay [2], the IC50 was 230 nM.

By inhibition is commonly meant how much of the control response was suppressed. High values mean a response far below the control, low ones a response near the control. A word on the IC50: it is the midpoint of a concentration-inhibition curve.
